Data as given in the NIST ThermoML archive (doi:10.1021/acs.jced.8b00554).
Values joined by “and” are separate entries in the source; they are usually repeats but may differ in a detail not shown here. Identical values can stand only once.

Test: xn = mol fraction of the nth substance listed
Conditions: 313.15 K, Liquid, Vibrating tube method

CCCCCCCCC [nonane] + CCCO
Conditions	mass density
100 kPa, x2 = 0.7021	741.23 kg/m3
100 kPa, x2 = 0.8941	766.16 kg/m3
1000 kPa, x2 = 0.7021	742.27 kg/m3
1020 kPa, x2 = 0.8941	767.45 kg/m3
2000 kPa, x2 = 0.8941	768.33 kg/m3
2010 kPa, x2 = 0.7021	743.17 kg/m3
3000 kPa, x2 = 0.7021	744.09 kg/m3
3010 kPa, x2 = 0.8941	769.22 kg/m3
4010 kPa, x2 = 0.7021	745 kg/m3
4010 kPa, x2 = 0.8941	770.09 kg/m3
5010 kPa, x2 = 0.7021	745.89 kg/m3
5010 kPa, x2 = 0.8941	770.95 kg/m3
6000 kPa, x2 = 0.3229	689.86 kg/m3
6000 kPa, x2 = 0.8941	771.82 kg/m3
6010 kPa, x2 = 0.2315	670.36 kg/m3
6010 kPa, x2 = 0.4272	717.03 kg/m3
6020 kPa, x2 = 0.1231	666.76 kg/m3
6020 kPa, x2 = 0.7021	746.77 kg/m3
7000 kPa, x2 = 0.1231	667.99 kg/m3
7000 kPa, x2 = 0.3229	691.15 kg/m3
7000 kPa, x2 = 0.8941	772.68 kg/m3
7010 kPa, x2 = 0.7021	747.64 kg/m3
7020 kPa, x2 = 0.2315	671.62 kg/m3
7020 kPa, x2 = 0.4272	718.27 kg/m3
8000 kPa, x2 = 0.1231	669.23 kg/m3
8000 kPa, x2 = 0.3229	692.44 kg/m3
8010 kPa, x2 = 0.4272	719.48 kg/m3
8010 kPa, x2 = 0.7021	748.52 kg/m3
8010 kPa, x2 = 0.8941	773.53 kg/m3
8020 kPa, x2 = 0.2315	672.88 kg/m3
9000 kPa, x2 = 0.1231	670.48 kg/m3
9000 kPa, x2 = 0.7021	749.39 kg/m3
9000 kPa, x2 = 0.8941	774.38 kg/m3
9010 kPa, x2 = 0.3229	693.71 kg/m3
9010 kPa, x2 = 0.4272	720.71 kg/m3
9020 kPa, x2 = 0.2315	674.14 kg/m3
10010 kPa, x2 = 0.2315	675.41 kg/m3
10010 kPa, x2 = 0.4272	721.93 kg/m3
10010 kPa, x2 = 0.7021	750.23 kg/m3
10020 kPa, x2 = 0.8941	775.22 kg/m3
11000 kPa, x2 = 0.8941	776.04 kg/m3
11010 kPa, x2 = 0.1231	672.98 kg/m3
11010 kPa, x2 = 0.2315	676.62 kg/m3
11010 kPa, x2 = 0.4272	723.15 kg/m3
11020 kPa, x2 = 0.3229	696.2 kg/m3
11020 kPa, x2 = 0.7021	751.07 kg/m3
12000 kPa, x2 = 0.1231	674.18 kg/m3
12000 kPa, x2 = 0.3229	697.42 kg/m3
12010 kPa, x2 = 0.2315	677.87 kg/m3
12010 kPa, x2 = 0.4272	724.32 kg/m3
12010 kPa, x2 = 0.7021	751.91 kg/m3
12020 kPa, x2 = 0.8941	776.87 kg/m3
13000 kPa, x2 = 0.2315	679.08 kg/m3
13000 kPa, x2 = 0.4272	725.44 kg/m3
13010 kPa, x2 = 0.1231	675.41 kg/m3
13010 kPa, x2 = 0.3229	698.65 kg/m3
13010 kPa, x2 = 0.8941	777.67 kg/m3
13020 kPa, x2 = 0.7021	752.73 kg/m3
14000 kPa, x2 = 0.1231	676.57 kg/m3
14010 kPa, x2 = 0.2315	680.27 kg/m3
14010 kPa, x2 = 0.3229	699.83 kg/m3
14010 kPa, x2 = 0.4272	726.63 kg/m3
14010 kPa, x2 = 0.8941	778.47 kg/m3
14020 kPa, x2 = 0.7021	753.54 kg/m3
15010 kPa, x2 = 0.1231	717.43 kg/m3 and 677.73 kg/m3
15010 kPa, x2 = 0.2315	681.42 kg/m3 and 721.96 kg/m3
15010 kPa, x2 = 0.3229	726.26 kg/m3
15010 kPa, x2 = 0.4272	727.76 kg/m3 and 732.14 kg/m3
15020 kPa, x2 = 0.3229	700.99 kg/m3
15020 kPa, x2 = 0.7021	754.35 kg/m3
15020 kPa, x2 = 0.8941	779.28 kg/m3
16000 kPa, x2 = 0.8941	780.06 kg/m3
16010 kPa, x2 = 0.2315	682.56 kg/m3 and 722.75 kg/m3
16010 kPa, x2 = 0.7021	755.14 kg/m3
16020 kPa, x2 = 0.1231	718.2 kg/m3
16020 kPa, x2 = 0.3229	702.15 kg/m3 and 727.04 kg/m3
16020 kPa, x2 = 0.4272	728.86 kg/m3 and 732.94 kg/m3
17000 kPa, x2 = 0.4272	729.95 kg/m3 and 733.7 kg/m3
17010 kPa, x2 = 0.1231	718.99 kg/m3
17010 kPa, x2 = 0.2315	683.64 kg/m3 and 723.54 kg/m3
17010 kPa, x2 = 0.3229	727.83 kg/m3
17010 kPa, x2 = 0.7021	755.92 kg/m3
17010 kPa, x2 = 0.8941	780.82 kg/m3
17020 kPa, x2 = 0.1231	679.98 kg/m3
17020 kPa, x2 = 0.3229	703.28 kg/m3
18000 kPa, x2 = 0.7021	756.69 kg/m3
18010 kPa, x2 = 0.1231	719.75 kg/m3
18010 kPa, x2 = 0.2315	684.75 kg/m3 and 724.3 kg/m3
18010 kPa, x2 = 0.3229	704.37 kg/m3 and 728.61 kg/m3
18010 kPa, x2 = 0.4272	734.49 kg/m3
18010 kPa, x2 = 0.8941	781.6 kg/m3
18020 kPa, x2 = 0.1231	681.03 kg/m3
